One data set concerns rat hepatocytes. Description: in vitro metabolism in rat hepatocytes in suspension, benzoic acid derivative formation by GC-MS. It is filed as in vitro ADME. As to conditions: incubated with hepatocytes isolated from rats; substantially no = below the limit of detection, i.e. <1%. The text has this: Decrease of Lilial™ and the compound released by the precursor of the present invention, and formation of the corresponding benzoic acid derivative may be analysed by GC-MS.
By “substantially no benzoic acid derivative” is meant that the concentration of said derivative is below the limit of detection, i.e. <1%. As such, the fragrance precursor releasing 3-(4-isobutyl-2-methylphenyl)propanal provides perfumers with an eminently suitable surrogate for the valuable yet problematic Lilial™.

The next data set has as its system primates. Particulars: cited from earlier work.
A further data set deals with mice. As to conditions: mouse, in vivo; cited from earlier work.
The next data set deals with guinea-pigs. Particulars: guinea pig, in vivo; cited from earlier work.

With `Cc1cc(CC(C)C)ccc1CCC=O` [3-(4-isobutyl-2-methylphenyl)propanal], the “formation of the corresponding benzoic acid derivative” value in the data set with rat hepatocytes is “forms no, or substantially no, corresponding benzoic acid derivative”.

As for `CC(C=O)Cc1ccc(C(C)(C)C)cc1` (stereo not shown) [Lilial™, 3-(4-tert-butylphenyl)-2-methylpropanal], the toxic effects entry with primates, in the data set with mice and in the data set with guinea-pigs was “No effects were found” throughout.
